Experimental findings from patent US20050203029A1, “Agents for treating <I>flaviviridae</I>infections” (priority 2002, published 2005) are described below.

Assay [1] relates to West Nile virus. Briefly: West Nile virus infection of BHK-21 cells (end point titration, RNase protection, immunofluorescence). The assay is classed as cell-based, West Nile flavivirus. As to conditions: 10 nM PI after infection, 12 hours.
Assay [2] concerns BVDV (CP7, NADL). In words: Western blot of pelleted BVDV virions with anti-BVDV core antibodies. The assay is classed as cell-based, bovine viral diarrhea virus. As to conditions: for production of BVDV virions (pelleted virions): 24 or 48 hours of treatment; for core signal, mature and immature form of the BVDV core protein / quantity of BVDV virus as measured by the core signal: 48 hours of treatment; for quantity of BVDV virus as measured by the core signal: 150 μM. (Immunoblotting shows a protein as a band on a membrane.)

Assay [3] concerns BVDV CP7. Briefly: BVDV CP7 infection of MDBK cells (end point titration, RNase protection, immunofluorescence). Type of assay: cell-based, bovine viral diarrhea virus. The following applies: 10 nM PI after infection, 30 hours.
Assay [4] relates to BVDV. In words: Electron microscopy (TEM) of BVDV-infected MDBK cells and virus supernatants. Type of assay: cell-based, bovine viral diarrhea virus.

Structures are written as SMILES. Peptide text beside a SMILES is read from it. * marks the point of attachment. Cbz = O=C(OCc1ccccc1)*

For `CC(C)C[C@@H](C=O)NC(=O)[C@H](CC(C)C)NC(=O)[C@H](CC(C)C)NC(=O)OCc1ccccc1` [MG132, N-carbobenzoxy-L-leucinyl-L-leucinyl-L-leucinal] (Cbz-Leu-Leu-Leu-aldehyde), the “reduction in the number of progeny viruses released” value (“reduction in the number” for short) in assay [1] was “several log steps”. Besides, in assay [2], the “production of BVDV virions (pelleted virions)” value was “block the production of BVDV virions”; the “core signal, mature and immature form of the BVDV core protein” value was “dose-dependent decrease”; the “quantity of BVDV virus as measured by the core signal” value turned out to be 10%. In assay [3], the “reduction in the number” value is reported as “several log steps”. Besides, in assay [4] (10 μm MG132, 30 hours), the “number of virus particles detected in cellular vesicles vs mock” value was “significantly smaller number of virus particles” and the “ratio of completely assembled to incompletely assembled virions” value was “shifted significantly in favor of incompletely assembled virus particles”. In addition, the “morphology of secreted viruses vs wild-type viruses” value in assay [4] (supernatants of PI-treated vs mock-treated cells) is “changed markedly”.

For `CC(=O)N[C@@H](CSC(=O)[C@]1([C@@H](O)C(C)C)NC(=O)[C@H](C)[C@@H]1O)C(=O)O` [lactacystin], in assay [1], the “reduction in the number” value is “slight” and the “reduction in the rate of RNA replication (factor)” value is recorded as “slight”. In assay [2], the “production of BVDV virions (pelleted virions)” value is recorded as “block the production of BVDV virions”; the “core signal, mature and immature form of the BVDV core protein” value is listed as “dose-dependent decrease”; the “quantity of BVDV virus as measured by the core signal” value is 10%. Moreover, in assay [3], the “reduction in the number” value was “slight” and the “reduction in the rate of RNA replication (factor)” value is listed as “slight”.
